Experimental data as given in US20250262308A1, “Compositions and Methods for Modulating Dopamine Receptor Activity” (The Regents of the University of California, priority 2022, published 2025).

Legend:
D2R = target: T1, D2R (Homo sapiens, UniProt P14416); test: GIRK activation assay, whole-cell patch clamp, HEK293T co-transfected with M, D2R and GIRK1 (F137S); assay type: cell-based; details: for photo-agonism of D2R (GIRK inward current): P tethered to M, compared with saturating dopamine (1 μM)
T1 construct: expressed in transfected cells; host or cells: HEK293T
T1 sequence (P14416 whole entry): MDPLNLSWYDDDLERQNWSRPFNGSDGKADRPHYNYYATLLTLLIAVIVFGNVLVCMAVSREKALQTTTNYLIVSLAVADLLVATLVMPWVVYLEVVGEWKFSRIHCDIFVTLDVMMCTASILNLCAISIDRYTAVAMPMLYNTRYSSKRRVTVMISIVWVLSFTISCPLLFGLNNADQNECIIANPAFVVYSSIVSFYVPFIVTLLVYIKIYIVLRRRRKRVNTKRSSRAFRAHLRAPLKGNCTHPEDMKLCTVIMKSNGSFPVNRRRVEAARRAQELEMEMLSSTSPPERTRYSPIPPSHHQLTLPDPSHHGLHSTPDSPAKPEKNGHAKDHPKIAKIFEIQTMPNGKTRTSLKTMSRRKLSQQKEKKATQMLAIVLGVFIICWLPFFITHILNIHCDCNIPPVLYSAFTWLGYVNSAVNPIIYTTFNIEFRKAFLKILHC
Procedure: D2R photo-activation was evaluated in a G protein-activated inwardly rectifying K^+ channel (GIRK) activation assay. The M anchoring protein was re-designed by substituting the SNAP-tag at its external N-terminal with a HALO-tag (FIG. 3A). HEK293T were co-transfected with M, D2R and the homotetramerizing mutant of GIRK1 (F137S), making it possible to detect D2R activation as Gi/o-dependent GIRK inward-current at high external K^+ and negative holding potential. Transfected cells were patch clamped in whole-cell configuration and alternately irradiated with 440 nm light or perfused with a saturating (1 μM) concentration of dopamine to elicit maximal D2R activation.
(A) Schematic representation of D2R activation by MP-D2ago in response to light. (B, C) Representative traces of MP-D2ago with one (1×; B) or two (2×; C) branch points. (D) Summary of the maximal photo-activation of D2R by MP-D2ago relative to a saturating concentration of DA (1 μM). […] Summary of the activation and deactivation kinetics (E) and light sensitivity (F) of D2R in response to 1× or 2×MP-D2ago.
To complement our cell-targeted D2R photo-agonist, a tethered photo-antagonist for D2R was designed. The same photoswitch architecture was employed; however, in this case, one of two substituted phenyl piperazines was used as a head group (FIG. 5A). Two variant phenyl piperazines, 2,3-dichloro- and 2-methoxy-phenylpiperazine, were chosen as the core scaffold. To each of these, we appended a 3-carbon (C3) linker followed by the same PEG- and HALO substrate employed in the synthesis of P-D2ago, thereby generating potential photo-antagonists. […] A 4-carbon linker at this position was tested.
FIG. 5A-5G: Evaluation of phenylpiperazine-based MPs of D2R in HEK293T cells. A) Chemical structures of P-D2 constructs used to label the M protein. B) Schematic representation MP-D2block,C3 and MP-D2pa,C3 activity under light irradiation. CD) Patch clamp electrophysiology traces of tethered partial agonists. E) Schematic representation of dopamine blocking by MP-D2block under light irradiation. F,G) Patch clamp electrophysiology traces of tethered D2 antagonist.

[1] = UV/Vis photophysical characterization of the photoswitch; assay type: physicochemical
Procedure: FIG. 2A-2E. Synthesis of P-D2ago and photophysical characterization. A) Chemical Synthesis of P-D2ago. B) UV Vis absorbance spectra of P-D2ago (20 μM in DMSO, 24° C.) in the dark and under 415 nm irradiation. C) Wavelength scan for P-D2ago (20 μM, DMSO, 24° C.). Each wavelength is applied for 2 minutes. […] E) Thermal relaxation of P-D2ago in DMSO after 1 minute irradiation with 415 nm at 37° C. F) Synthesis of branched, photoswitchable amino indenyl dimer P-D2ago-2X.
UV Vis data were analyzed and plotted using […] Prism. Irradiation was achieved from the top of the cuvette through a fiber-optic cable. […] Absorbance (reported as Abs, in arbitrary units) was measured at 420 nm over time. Thermal Relaxation was measured after 1 min irradiation with 415 nm at 10 or 20 μM, and subsequently absorption increase was detected at 420 nm. The relaxation half-live of the cis-isomer was determined by curve fitting, using exponential one-phase decay in […] Prism. Photostationary states were determined by pre-irradiation of samples (20 uM, DMSO) for 10 min at the respective wavelengths. Samples for LCMS separation were prepared under red-light conditions in amber vials and immediately subjected to LCMS.
FIG. 8A-8E: Photophysical Characterization of P-D1block(24) A) UV Vis absorption spectra of dark-adapted (100% trans) P-D1block(24) in DMSO (20 μM), and after preirradiation with 370/460 nm for 10 min. […] C) Photostationary state (PSS) of P-D1block(24) in DMSO (20 μM, 24° C.), after preirradiation with 360/420 nm for 10 min. Detection of PSS was achieved by LCMS by separation of isomers and integration of Abs at the isosbestic point of cis- and trans-isomers at the respective elution solvent mixtures. D, E) Thermal relaxation of P-D1block(24) in 10% DMSO in PBS and 100% DMSO at 37° C., detection of Abs at 340 nm after pre-irradiation of the samples for 10 min at 360 nm.

SMILES	photo-agonism of D2R (GIRK inward current) (D2R; 440 nm light)	photo-antagonism of D2R activation by dopamine (D2R; tethered to M, 440 nm light, 1 uM dopamine)	sensitivity to light, greater than P-D2ago (D2R; tethered to M) [fold]	activation kinetics, faster than P-D2ago (D2R; tethered to M, 440 nm light) [fold]	reversible switching ([1]; 20 μM in DMSO, alternating irradiation)	thermal back-relaxation in aqueous environment ([1]; 10% DMSO in PBS)	absorption maximum ([1]; UV/Vis, 20 μM in DMSO, 24° C.) [nm]	wavelength of maximal switching into the cis-form (maximum PSS) ([1]; wavelength scan, 20 μM, DMSO, 24° C.) [nm]
COc1ccccc1N1CCNCC1 [2-methoxy-phenylpiperazine]	very weak partial agonism	very weak antagonism						
CCCN(CCCCNc1ccc(/N=N/c2ccc(NC(=O)CCOCCOCCOCCOCCOCCOCCOCCOCCOCCOCCOCCOCCOCCOCCOCCOCCOCCOCCOCCOCCOCCOCCOCCOCCNC(=O)CCC(NC(=O)CCC(=O)NCCOCCOCCCCCCCl)C(=O)NCCOCCOCCOCCOCCOCCOCCOCCOCCOCCOCCOCCOCCOCCOCCOCCOCCOCCOCCOCCOCCOCCOCCOCCOCCC(=O)Nc3ccc(/N=N/c4ccc(NCCCCN(CCC)C5Cc6ccccc6C5)cc4)cc3)cc2)cc1)C1Cc2ccccc2C1 (stereo not shown) [2X-P-D2ago]	same maximal activation		~5	~2				
CCCN(CCCCNc1ccc(/N=N/c2ccc(NC(=O)CCOCCOCCOCCOCCOCCOCCOCCOCCOCCOCCOCCOCCOCCOCCOCCOCCOCCOCCOCCOCCOCCOCCOCCOCCNC(=O)CCC(=O)NCCOCCOCCCCCCCl)cc2)cc1)C1Cc2ccccc2C1 [P-D2ago]	full photo-agonism				without fatigue	exceeds the detection limit	424	440
